The values below are quoted from earlier work in patent EP0238198A2, “Method of modifying the lipid structure function and expression of cell membranes and pharmaceutical compositions for use therein” (Habib, Nagy Adly, priority 1986, dated 1987).

In the series the test system is hepatoma cell lines. As to conditions: in vitro; cited from earlier work.

Turning to `CCCCCCCCC1=C(CCCCCCCC(=O)O)C1` [sterculic acid], the growth inhibition result is “growth inhibition” and the saturation index entry is listed as “increase in their saturation index”.
